{
  "source": "paper PMC12541610",
  "about": "(Acta Pharmaceutica Sinica. B, 2025)",
  "target": "ATP synthase F1 subunit alpha (ATP5A1) (Mus musculus, UniProt Q03265)",
  "sequence (Q03265 whole entry)": "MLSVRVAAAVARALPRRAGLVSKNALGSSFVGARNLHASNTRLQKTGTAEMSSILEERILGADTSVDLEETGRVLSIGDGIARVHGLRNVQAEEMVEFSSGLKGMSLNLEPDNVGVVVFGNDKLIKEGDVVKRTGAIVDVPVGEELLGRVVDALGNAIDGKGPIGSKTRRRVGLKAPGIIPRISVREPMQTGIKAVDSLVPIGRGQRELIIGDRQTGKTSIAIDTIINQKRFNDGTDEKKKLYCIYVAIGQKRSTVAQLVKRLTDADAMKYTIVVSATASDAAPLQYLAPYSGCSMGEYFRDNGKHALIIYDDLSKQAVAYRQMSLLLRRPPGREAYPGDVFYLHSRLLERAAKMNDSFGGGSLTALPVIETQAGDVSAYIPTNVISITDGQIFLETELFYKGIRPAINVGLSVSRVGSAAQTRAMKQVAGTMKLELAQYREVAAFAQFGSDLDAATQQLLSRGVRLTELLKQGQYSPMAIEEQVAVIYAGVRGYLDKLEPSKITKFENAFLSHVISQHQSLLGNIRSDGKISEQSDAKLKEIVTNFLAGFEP",
  "assay": "intrinsic fluorescence titration of purified protein",
  "assay_type": "binding",
  "data": [
    {"smiles": "C=C(C)[C@@H]1CCC(C)=C[C@H]1c1c(O)cc(CCCCC)cc1O", "note": "[Cannabidiol]", "values": [
      {"measurement": "Kd", "value": "4.9 ± 1.2", "unit": "µM"}
    ]}
  ]
}
